Assays:
healthy subjects = assay: Example 1 Part 1 (SAD): safety in healthy subjects; assay type: in vivo, human
Description: Part 1 comprises a Screening Period of a maximum of 6 weeks. This is followed by a Treatment Period during which subjects are resident at the Clinical Unit from 1 day before investigational medicinal product (IMP) administration (Day −1) until at least 72 hours after IMP administration (Day 4). Subjects receive a single oral dose of AZD5055 or placebo on Day 1. This is followed by a Follow-up Visit within 6±1 day after the IMP dose.
The study was conducted in healthy male and healthy female subjects of non-childbearing potential with suitable veins for cannulation or repeated venipuncture. […] Also, the subjects were aged 18 to 55 years inclusive for men and women in Part 1 and only men in Part 2. For female subjects in Part 2, the age range was 18 to 49 years inclusive.
In Part 1 of the study, 3 dose levels of AZD5055 were investigated in 3 cohorts. Each cohort included 8 subjects. Within each cohort, 6 subjects were randomized to receive AZD5055, and 2 subjects were randomized to receive placebo. In Part 2 of the study, 3 dose levels of AZD5055 were investigated in 3 cohorts. In each cohort, 9 subjects were randomized to receive AZD5055, and 3 subjects were randomized to receive placebo.
Safety endpoints included adverse events; vital signs (supine blood pressure, pulse, respiratory rate, and body temperature); 12-lead ECG, 12-lead dECG, telemetry, physical examinations, clinical laboratory assessments (hematology, clinical chemistry [including serum creatinine and creatine phosphokinase], urinalysis [including protein and albumin creatinine ratios], and cardiac biomarkers [including cardiac Troponin T (cTNT), cardiac Troponin I; (cTNI), and B type natriuretic peptide]), and peripheral oxygen saturation (SpO2).
All safety data (scheduled and unscheduled) were presented in the data listings. Continuous variables were summarized using descriptive statistics (n, mean, standard deviation, min, median, max) by treatment. Categorical variables were summarized in frequency tables (frequency and proportion) by treatment (both Parts 1 and 2). The analysis of the safety variables was based on the safety analysis set. Adverse events were summarized by System Organ Class (SOC) and Preferred Term (PT) using Medical Dictionary for Regulatory Activities vocabulary. Furthermore, listings of serious adverse events (SAEs) and adverse events leading to the discontinuation of IMP (DAEs) were made and the number of subjects who had any adverse events (AEs), SAEs, DAEs and AEs with severe intensity were summarized. Adverse events that occur before dosing were reported separately. Tabulations and listings of data for ECG, vital signs, AEs, and clinical laboratory tests, measurements were presented.

healthy participants = assay: Example 2: safety in healthy participants; assay type: in vivo, human
Description: The study comprises a screening period of maximum 28 days, and five periods during which subjects will participate from Day −1 of Period 1 to 72 hours after the AZD5055 dose in Period 5.
Period 1: On Day 1, the subjects will receive either 5 mg AZD5055 as a 20-minute IV infusion (Treatment A) in an overnight fasted state or AZD5055 20 mg as oral suspension (Treatment B) in an overnight fasted state.
Period 2: On Day 1 (Study Day 4), the subjects will receive 20 mg AZD5055 film-coated tablet (Treatment C) in an overnight fasted state.
Period 3: On Day 1 (Study Day 8) the subjects will receive a standardized high-fat breakfast 30 minutes before 20 mg AZD5055 administered as film-coated tablet (Treatment D).
Period 4: On Study Day 10, three days prior to Day 1, 20 mg rabeprazole will be administered twice daily. On Day 1 (Study Day 13), 20 mg AZD5055 film-coated tablet will be administered together with rabeprazole and rabeprazole dosing will continue twice daily (Treatment E).
Period 5: On Day 1 (Study Day 17) the participants will receive a low-fat breakfast 30 minutes before 20 mg AZD5055 film-coated tablet administered together with 20 mg rabeprazole.
Rabeprazole will continue twice daily, the last dose is on the evening of Study Day 18 (Treatment F).
Safety Variables—Safety endpoints included adverse events (AEs), clinical laboratory assessments (hematology, clinical chemistry, urinalysis, and urinary albumin:creatinine ratios), vital signs and peripheral oxygen saturation (SpO2), standard 12-lead electrocardiogram, (ECG), telemetry, and physical examinations.
All safety data (scheduled and unscheduled) were presented in the data listings. Continuous variables were summarized using descriptive statistics (n, mean, SD, min, median, max) by treatment. Categorical variables were summarized in frequency tables (frequency and proportion) by treatment/dose group. The analysis of the safety variables was based on the safety analysis set.

[1] = test system: bleomycin-mediated fibrosis in the lungs of rats; conditions: cited from earlier work
[2] = Part 1, across all AZD5055 doses

Cc1cc(-c2nccc3c2ccn3CC(=O)Nc2ccc(-c3cnccn3)cn2)ccn1 [AZD5055, 2-[4-(2-methyl-4-pyridyl)pyrrolo[3,2-c]pyridin-1-yl]-N-(5-pyrazin-2-yl-2-pyridyl)acetamide]
AEs possibly related to AZD5055 (healthy subjects; Part 1): dizziness, ventricular tachycardia, wheezing, upper abdominal pain, vomiting, and nausea
clinical laboratory results, vital signs, physical examinations, ECGs (healthy subjects; Part 1): No clinically relevant trends
trends for AEs by SOC or PT (healthy subjects; Part 1): no notable trends
subjects with at least one AE (healthy subjects; [2]): 4 subjects
subjects with at least one AE possibly related to AZD5055 (healthy subjects; [2]): 3 subjects
subjects with at least one AE possibly related to AZD5055, percent (healthy subjects; [2]): 16.7%
subjects with at least one AE, percent (healthy subjects; [2]): 22.2%
AE intensity (healthy subjects; Part 1, all AEs): Grade 1 (mild)
AE outcome (healthy subjects; Part 1, all AEs, by end of study): recovered/resolved by the end of the study
SAEs, deaths, AEs leading to discontinuation or withdrawal (healthy subjects; Part 1, all doses): no SAEs, deaths, or AEs leading to discontinuation of AZD5055 or withdrawal from the study
tolerability (healthy subjects; single oral suspension dose 7, 20 and 40 mg, n=6 per dose level): well-tolerated
participants with SAE (transaminases increased), possibly related (healthy participants; Period 3 (tablet, high-fat fed)): One
AEs leading to discontinuation, events (healthy participants; after dosing in Period 3): 2 events
participants with AE leading to discontinuation (healthy participants; after dosing in Period 3, transaminases increased and non-cardiac chest pain): Two
participants with at least 1 AE of Grade 1 intensity (healthy participants; in total): 8 participants
participants with at least 1 AE of Grade 2 intensity (healthy participants; in total): 4 participants
AEs Grade 3 or higher (healthy participants; in vivo): No AEs Grade 3 or higher
deaths (healthy participants; in vivo): no deaths
laboratory parameters, vital signs, ECGs, physical examination (healthy participants; in vivo): No clinically relevant trends
AEs possibly related to AZD5055, events (healthy participants; overall): 9 events
any AE, events (healthy participants; overall): 20 events
participants with any AE (healthy participants; overall): 11 participants
participants with any AE possibly related to AZD5055 (healthy participants; overall): Five
tolerability (healthy participants; single oral and IV doses): generally well tolerated
pulmonary fibrosis ([1]; rat bleomycin in vivo study (Bunyard 2019)): reduced pulmonary fibrosis
bleomycin-mediated fibrosis in the lungs ([1]; rats, preliminary studies (Bunyard 2019)): reduces bleomycin-mediated fibrosis in the lungs of rats

From patent US20260345593A1, “ORAL FORMULATION OF N-PYRIDINYL ACETAMIDE DERIVATIVE FOR TREATING INTERSTITIAL LUNG DISEASE” (AstraZeneca AB, priority 2022, published 2026)
